Measurements from patent US20170281653A1, “DERMOCOSMETIC OR PHARMACEUTICAL USE OF A COMPOSITION CONTAINING AT LEAST ONE INHIBITOR OF CERTAIN CHEMOKINES” (GREENPHARMA, priority 2014, published 2017).
pKd: −log10 of the molar value. Read-outs that look alike come from different tables or passages of the source.

Experiments:
CCL17 = target: T1, CCL17 (Homo sapiens, UniProt Q92583); experiment: Inhibition of intracellular calcium response (INDO-1) induced by CCL17 in HEK 293 cells expressing CCR4; type: cell-based; settings: compound concentration not given
T1 construct: host or cells: HEK 293 cells expressing EGFP-CCR4 (and Gqi5)
T1 sequence (Q92583 24-94): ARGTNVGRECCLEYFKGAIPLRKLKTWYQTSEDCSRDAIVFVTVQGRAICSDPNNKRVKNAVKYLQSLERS
Method: In order to enable an easy recording of the responses associated to the CCR4 receptor, the cDNA which allows its expression is cloned in the plasmid pIRES (ClonTech) in fusion with the GFP protein, according to Vollmer et al. (1999), which enables to easily measure the expression of the chimeric EGFP-CCR4 receptor. HEK 293 cells (ATCC) are cultured in minimal essential medium MEM (Invitrogen) in the presence of 10% of fetal calf serum (Gibco-BRL), 100 U/mL of penicillin (Invitrogen), 100 αg/mL of streptomycin (Invitrogen) and 2 mM of L-glutamine (Invitrogen) at 37° C. in water-saturated atmosphere and containing 5% of 002. The cells are transfected according to the calcium phosphate precipitate method of Chen ant Okayama, 1986, and the cells having incorporated the expression plasmid are selected with 600 αg/mL of geneticin G-418 (PAA) for 5 weeks. The clones are selected after having been characterized by fluorescence microscopy and cytometric analysis by FACS (fluorescence assisted cell sorting). In order to enable an easy recording of the cell responses associated to the CCR4 receptor, we modify its natural coupling to the inhibition of AMPc production to a coupling to the phospholipase C which enables calcium measurements. We produce for this purpose the chimeric protein Gqi5 by directed mutagenesis of the 5 las amino acids of Gq replaced by their homologues of Gi. The cells expressing the CCR4 receptor are transfected with the plasmid pCNA3.1 in which the cDNA encoding Gqi5 has been incorporated. The recordings of calcium responses are performed the day after de transfection. The cells are loaded with a fluorescent calcium indicator, INDO-1, according to the protocol provided by the provider (Molecular probes), distributed in microplate wells and placed in a fluorescence reader-pipettor (FlexStation, Molecular devices). Intracellular calcium elevation is measured by fluorescence intensity change at 401 and 475 nm (excitation 355 nm). Measure points are recorded every 5 s for 150 s for each well. The molecules are tested in the presence of 5 nM of chemokine CCL22 (commercial). […] The response develops in a few seconds and fades with time for reaching the return in approximately 2 minutes for a chemokine CCL22 concentration of 5 to 10 nM in HEK 293 cells expressing CCR4. If the molecules to be tested are preincubated with chemokine [CK+N] and if the mixture is added to the cells, we observe a strong decrease in the amplitude of the response if the molecule to be tested is a neutralizing ligand of the chemokine. Conversely, when the neutralizing ligand is preincubated with the cells expressing the receptor [CKR+N] we observe a much smaller decrease of the amplitude of the response. Analysis of the molecules selectivity is carried out by measuring the inhibition of the response evoked by other chemokines on their respective receptors thus, in FIG. 3, the molecules have been tested on the pairs CCL2/CCR2, CCL3/CCR5, CCL17/CCR4, CCL22/CCR4, […], CXCL10/CXCR2, CXCL11/CXCR3, CXCL12/CXCR4.

CCL22 [1] = target: T2, CCL22 (Homo sapiens, UniProt O00626); experiment: Inhibition of intracellular calcium response (INDO-1) induced by CCL22 in HEK 293 cells expressing EGFP-CCR4 and Gqi5; type: cell-based; set-up: purchased; host or cells: HEK 293 cells stably expressing EGFP-CCR4, transiently transfected with Gqi5; settings: HEK 293 cells expressing CCR4; 5 nM CCL22; compound concentration not given
T2 sequence (O00626 25-93): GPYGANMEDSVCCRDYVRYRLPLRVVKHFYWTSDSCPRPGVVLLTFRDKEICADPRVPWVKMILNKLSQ
Method: In order to enable an easy recording of the responses associated to the CCR4 receptor, the cDNA which allows its expression is cloned in the plasmid pIRES (ClonTech) in fusion with the GFP protein, according to Vollmer et al. (1999), which enables to easily measure the expression of the chimeric EGFP-CCR4 receptor. HEK 293 cells (ATCC) are cultured in minimal essential medium MEM (Invitrogen) in the presence of 10% of fetal calf serum (Gibco-BRL), 100 U/mL of penicillin (Invitrogen), 100 αg/mL of streptomycin (Invitrogen) and 2 mM of L-glutamine (Invitrogen) at 37° C. in water-saturated atmosphere and containing 5% of 002. The cells are transfected according to the calcium phosphate precipitate method of Chen ant Okayama, 1986, and the cells having incorporated the expression plasmid are selected with 600 αg/mL of geneticin G-418 (PAA) for 5 weeks. The clones are selected after having been characterized by fluorescence microscopy and cytometric analysis by FACS (fluorescence assisted cell sorting). In order to enable an easy recording of the cell responses associated to the CCR4 receptor, we modify its natural coupling to the inhibition of AMPc production to a coupling to the phospholipase C which enables calcium measurements. We produce for this purpose the chimeric protein Gqi5 by directed mutagenesis of the 5 las amino acids of Gq replaced by their homologues of Gi. The cells expressing the CCR4 receptor are transfected with the plasmid pCNA3.1 in which the cDNA encoding Gqi5 has been incorporated. The recordings of calcium responses are performed the day after de transfection. The cells are loaded with a fluorescent calcium indicator, INDO-1, according to the protocol provided by the provider (Molecular probes), distributed in microplate wells and placed in a fluorescence reader-pipettor (FlexStation, Molecular devices). Intracellular calcium elevation is measured by fluorescence intensity change at 401 and 475 nm (excitation 355 nm). Measure points are recorded every 5 s for 150 s for each well. The molecules are tested in the presence of 5 nM of chemokine CCL22 (commercial). […] The response develops in a few seconds and fades with time for reaching the return in approximately 2 minutes for a chemokine CCL22 concentration of 5 to 10 nM in HEK 293 cells expressing CCR4. If the molecules to be tested are preincubated with chemokine [CK+N] and if the mixture is added to the cells, we observe a strong decrease in the amplitude of the response if the molecule to be tested is a neutralizing ligand of the chemokine. Conversely, when the neutralizing ligand is preincubated with the cells expressing the receptor [CKR+N] we observe a much smaller decrease of the amplitude of the response. The apparent affinity of the GPN136 molecules is determined by the establishment of a dose-effect relationship of the inhibition of the calcium response as presented in FIG. 2 and the results obtained are reported in table 1.

CCL22 [2] = target: T2, CCL22; experiment: Interaction affinity by fluorescence extinction of tryptophan residues of CCL22; type: binding; settings: for pKd: CCL22 1.5 μm, HEPES buffer without albumin, 20° C., biphasic titration curve; for Fluorescence extinction of CCL22 (tryptophan intrinsic fluorescence): excitation 285 nm, emission 300-400 nm, FIG. 4
Method: Briefly: the fluorescence measurements are carried out on a spectrofluorimeter Fluorolog 3 (JobinYvon/Spex) in a quartz cuvette. CCL22 (1.5 μm (HEPES buffer without albumin) in 1 mL final volume) is excited at 285 nm and its emission spectrum is recorded between 300 and 400 nm after each addition of an aliquot of molecule to be tested (1 μm). The measurements are carried out at 20° C. and the solutions are stirred using a magnetic stir bar. The recorded emission spectra are corrected by subtraction of the emission spectrum of the compound to be tested alone.

Hacat cells [3] = experiment: Human keratinocyte migration assay (in vitro wound-healing test in a cell monolayer, scratch, IncuCyte); type: cell-based; settings: 100 ng/ml CCL22, 72 h, mitomycin 1 μg/ml, FIG. 5
Source text: The activity of the GPN 136 molecule has been evaluated in a human keratinocytes migration assay performed according to an in vitro wound-healing test in a cell monolayer. It is actually known that, in these chronic pathologies, an important cell migration may promote de formation of pruritus, one of the signs of dermatosis. The immortalized human keratinocytes obtained from the DKFZ (Heidelberg, Germany) are cultivated in Dulbecco medium modified by Eagle (DMEM, Invitrogen) supplemented with 10% of fetal calf serum (Gibco-BRL) and 100 U/ml of penicillin (Invitrogen), 100 μg/ml of streptomycin (Invitrogen) and 2 mM of L glutamine (Invitrogen) at 37° C. and 5% of CO2. The wells of a culture plate of 24 well are inoculated with 200,000 cells and the culture is maintained until formation of a confluent cell monolayer. The cell monolayer is then damaged by performing a linear gap (scratch) using a sterile pipette head of 0.1-10 μL. […] The effect of the molecules alone is also recorded in different wells. […]
The culture plates are arranged in the IncuCyte apparatus which records the growth on the cell monolayer by transmitted imaging in cell culture conditions (37° C., 5% CO2, water-saturated atmosphere) for 72 h. […] Healing is defined (quantified) as the ratio of the width of the scar at time t and time 0. […]

Hacat cells [4] = experiment: Metabolic activity test (WST-1 assay), in vitro cytotoxic activity; type: cell-based, human; settings: 0.3 μM, 10 μM or 30 μM, 72 hours, FIG. 7
Source text: The metabolic activity test is a colorimetric test (WST-1 assay—Ozyme) based on the measurement of the activity of the mitochondrial enzyme succinate-tetrazolium reductase cleaving the tetrazolium salt WST-1 ((4-[3-(4-Iodophenyl)-2-(4-nitrophenyl)-2H-5-tetrazolio]-1,3 benzene disulfonate)) in a water-soluble derivative called formazan, a dye which absorbs light in the range of 420-480 nm. Hacat cells are distributed at the rate of 200,000 cells per well in a culture plate of 24 wells, in a final volume of 500 μL. They are cultured for 24 hours before adding mitomycin C (1 μg/ml) and the compound to be tested. The culture plate is incubated for 72 hours at 37° C., 5% CO2, in water-saturated atmosphere. […] The plates are stirred to homogenize the color in the wells and the absorbance is measured at 450 nm in the multiwell-plate reader. […] As enzymatic activity requires cellular integrity, the absorbance will be all the stronger as the metabolic state of the cells is good.
In vitro cytotoxic activity: the Hacat cell cultures are treated with different concentrations of molecule: 0.3 μM (dark gray bars), 10 μM (light gray bars) or 30 μM (white bars) of GPN 136 and GPN 025 molecules. The activity of the mitochondrial enzyme formazan-reductase is recorded using the chromogenic substrate WST-1 which turns into a colored product, called formazan, detected at 450 nm.

| Inhibition of calcium responses induced by CCL17 (%) (CCL17) | Inhibition of calcium responses induced by CCL22 (%) (CCL22 [1]) | Compound | further results |
| --- | --- | --- | --- |
| 0 | 10 ± 5 | O=C(OCC(O)COC(=O)c1ccccc1O)c1ccccc1O [GPS008504] | – |
| 0 | 0 | O=C(O)c1ccccc1O [GPN0001207] | – |
| 0 | 37 ± 6 | O=C(OCC(O)CO)c1ccccc1O (stereo in doubt) [GPS008505, (R)-2,3-dihydroxypropyl 2-hydroxybenzoate] | – |
| 0 | 0 | CC(=O)Oc1ccccc1C(=O)O [Acetylsalicylic acid, reference compound] | – |
| 0 | 35 ± 8 | O=C(OCC(O)CO)c1ccccc1O (stereo not shown) [GPN136, 2,3-dihydroxypropyl 2-hydroxybenzoate] | pKd (CCL22 [2]; read-out: KD, second site): 4.28; pKd (CCL22 [2]; read-out: KD, site of high affinity): > 7.30; Fluorescence extinction of CCL22 (tryptophan intrinsic fluorescence) (CCL22 [2]): fluorescence extinction of CCL22 is observed; Effect on CCL22-accelerated cell migration (Hacat cells [3]): abolished; Effect on mitochondrial enzymatic activity / cellular metabolism (WST-1, 450 nm) (Hacat cells [4]): does not affect enzymatic activity |
| 0 | 40 ± 5 | O=C(OCC(O)CO)c1ccccc1O (stereo in doubt) [GPS008506, (S)-2,3-dihydroxypropyl 2-hydroxybenzoate] | – |
| – | – | COc1cc2nc(N3CCC(N4CCCCC4)CC3)nc(NC3CCCCCC3)c2cc1OC [C-021, reference compound] | Fluorescence extinction of CCL22 (tryptophan intrinsic fluorescence) (CCL22 [2]): no signal |
| 0 | 0 | O=C(OC[C@H](O)CO)c1ccccc1 [GPS008508] | – |
| 0 | 0 | O=C(OC[C@@H](O)CO)c1ccccc1 [GPS008507] | – |
